Assay results reported in ChEMBL document CHEMBL1133807, “Regiospecific phosphohydrolases from Dictyostelium as tools for the chemoenzymatic synthesis of the enantiomers D-myo-inositol 1,2,4-trisphosphate and D-myo-inositol 2,3,6-trisphosphate: non-physiological, potential analogues of biologically active D-myo-inositol 1,3,4-trisphosphate” (Bioorg Med Chem Lett, 2001).

Experiment: Inhibition of recombinant human Inositol 3,4,5,6 tetrakisphosphate 1-kinase using [3H]Ins(3,4,5,6)[…] as substrate

IC50 | SMILES
~4 µM | O=P(O)(O)O[C@H]1[C@H](O)[C@@H](O)[C@H](OP(=O)(O)O)[C@@H](OP(=O)(O)O)[C@H]1O
~9 µM | O=P(O)(O)O[C@H]1[C@H](O)[C@@H](O)[C@H](OP(=O)(O)O)[C@H](OP(=O)(O)O)[C@@H]1O
≥ 300 µM | O=P(O)(O)O[C@@H]1[C@@H](O)[C@H](O)[C@@H](OP(=O)(O)O)[C@@H](OP(=O)(O)O)[C@H]1O
